Like-named read-outs stand apart in the source and are kept apart here.
How the values were obtained:
[1] = biological target: T1, recombinant α1β2γ2 GABAA receptors (Homo sapiens, UniProt P14867+P47870); assay: Patch clamp electrophysiology, QPatch, LTK cells; assay type: cell-based; details: 10 μM test article, GABA EC20 = 2 μM, read-out: GABA (α1β2γ2) Qpatch in Ltk, % efficacy at 10 μM
T1 construct: expressed in transfected cells

[2] = biological target: [35S]-TBPS binding, rat brain cortical membranes (GABA receptor complex); assay: [35S]-TBPS binding (steroid inhibition of TBPS binding); details: in the presence of 5 μM GABA, read-out: 35S-TBPS Radioligand Displacement
Experimental: [35S]-t-Butylbicyclophosphorothionate (TBPS) binding assays using rat brain cortical membranes in the presence of 5 μM GABA has been described (Gee et al, J. Pharmacol. Exp. Ther. 1987, 241, 346-353; Hawkinson et al, Mol. Pharmacol. 1994, 46, 977-985; Lewin, A. H et al., Mol. Pharmacol. 1989, 35, 189-194).
Briefly, cortices are rapidly removed following decapitation of carbon dioxide-anesthetized Sprague-Dawley rats (200-250 g). The cortices are homogenized in 10 volumes of ice-cold 0.32 M sucrose using a glass/teflon homogenizer and centrifuged at 1500×g for 10 min at 4° C. The resultant supernatants are centrifuged at 10,000×g for 20 min at 4° C. to obtain the P2 pellets. The P2 pellets are resuspended in 200 mM NaCl/50 mM Na-K phosphate pH 7.4 buffer and centrifuged at 10,000×g for 10 min at 4° C. This washing procedure is repeated twice and the pellets are resuspended in 10 volumes of buffer. Aliquots (100 μL) of the membrane suspensions are incubated with 3 nM [^35S]-TBPS and 5 μL aliquots of test drug dissolved in dimethyl sulfoxide (DMSO) (final 0.5%) in the presence of 5 μM GABA. The incubation is brought to a final volume of 1.0 mL with buffer. Nonspecific binding is determined in the presence of 2 μM unlabeled TBPS and ranged from 15 to 25%. Following a 90 min incubation at room temp, the assays are terminated by filtration through glass fiber filters (Schleicher and Schuell No. 32) using a cell harvester (Brandel) and rinsed three times with ice-cold buffer. Filter bound radioactivity is measured by liquid scintillation spectrometry. Non-linear curve fitting of the overall data for each drug averaged for each concentration is done using Prism (GraphPad). […] The concentration of test compound producing 50% inhibition (IC50) of specific binding and the maximal extent of inhibition (Imax) are determined for the individual experiments with the same model used for the overall data and then the means±SEM.s of the individual experiments are calculated.
Various compounds are or can be screened to determine their potential as modulators of [^35S]-TBPS binding in vitro. These assays are or can be performed in accordance with the above discussed procedures.

T1 sequence (P14867 28-456): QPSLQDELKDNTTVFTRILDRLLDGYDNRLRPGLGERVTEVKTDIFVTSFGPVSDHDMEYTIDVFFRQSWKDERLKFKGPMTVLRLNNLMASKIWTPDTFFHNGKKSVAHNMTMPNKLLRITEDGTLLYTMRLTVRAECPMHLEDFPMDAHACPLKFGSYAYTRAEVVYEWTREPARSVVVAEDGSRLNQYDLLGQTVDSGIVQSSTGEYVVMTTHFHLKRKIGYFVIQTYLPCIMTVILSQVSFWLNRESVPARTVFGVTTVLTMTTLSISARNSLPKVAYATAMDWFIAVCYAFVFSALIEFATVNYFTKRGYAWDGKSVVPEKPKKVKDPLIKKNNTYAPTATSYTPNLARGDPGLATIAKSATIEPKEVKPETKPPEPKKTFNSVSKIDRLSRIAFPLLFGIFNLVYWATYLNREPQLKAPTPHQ
T1 sequence (P47870 25-512 limits assumed): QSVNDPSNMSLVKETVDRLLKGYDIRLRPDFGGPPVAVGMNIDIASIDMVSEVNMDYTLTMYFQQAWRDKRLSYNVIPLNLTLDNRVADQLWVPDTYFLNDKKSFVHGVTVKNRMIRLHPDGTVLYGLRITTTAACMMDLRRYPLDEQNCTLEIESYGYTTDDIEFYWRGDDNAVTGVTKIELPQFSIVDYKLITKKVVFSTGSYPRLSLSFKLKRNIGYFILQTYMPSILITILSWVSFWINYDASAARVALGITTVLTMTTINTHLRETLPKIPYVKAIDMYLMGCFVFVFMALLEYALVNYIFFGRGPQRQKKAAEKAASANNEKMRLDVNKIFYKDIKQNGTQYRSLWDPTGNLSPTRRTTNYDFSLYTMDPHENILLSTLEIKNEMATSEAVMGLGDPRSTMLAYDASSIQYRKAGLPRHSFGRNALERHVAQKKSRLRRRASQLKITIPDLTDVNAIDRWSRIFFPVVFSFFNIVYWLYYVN
T1 sequence (P18507 40-475 partner): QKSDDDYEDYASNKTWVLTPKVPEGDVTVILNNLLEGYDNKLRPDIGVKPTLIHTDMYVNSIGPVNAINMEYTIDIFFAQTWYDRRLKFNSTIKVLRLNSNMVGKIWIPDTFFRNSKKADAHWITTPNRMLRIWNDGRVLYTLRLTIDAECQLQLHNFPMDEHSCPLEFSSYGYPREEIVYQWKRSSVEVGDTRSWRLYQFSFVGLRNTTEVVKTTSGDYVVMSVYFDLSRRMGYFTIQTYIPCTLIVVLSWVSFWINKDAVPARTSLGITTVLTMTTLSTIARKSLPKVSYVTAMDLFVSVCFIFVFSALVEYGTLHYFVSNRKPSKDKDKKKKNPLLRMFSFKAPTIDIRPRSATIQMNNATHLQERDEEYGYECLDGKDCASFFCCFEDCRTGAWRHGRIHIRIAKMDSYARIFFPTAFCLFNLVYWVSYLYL

Row | Compound | Emax at 10 µM [1] | IC50 [2] | Emax at 10 µM ([1]; in cremophor)
1 | C[C@@]1(O)CC[C@H]2[C@H](CC[C@@H]3[C@@H]2CC[C@]2(C)[C@@H](C(=O)Cn4cncn4)CC[C@@H]32)C1 [SA-1] | 100 to 500% | 0.1 to 0.5 µM | –
2 | Cc1cn(CC(=O)[C@H]2CC[C@H]3[C@@H]4CC[C@@H]5C[C@](C)(O)CC[C@@H]5[C@H]4CC[C@]23C)nn1 [SA-5] | > 500% | – | –
3 | C[C@@]1(O)CC[C@H]2[C@H](CC[C@@H]3[C@@H]2CC[C@]2(C)[C@@H](C(=O)Cn4nnc(C(F)(F)F)n4)CC[C@@H]32)C1 [SA-8] | 100 to 500% | – | –
4 | C[C@@]1(O)CC[C@H]2[C@H](CC[C@@H]3[C@@H]2CC[C@]2(C)[C@@H](C(=O)Cn4cc(C#N)nn4)CC[C@@H]32)C1 [SA-20] | – | – | 100 to 500%
5 | C[C@]12CC[C@H]3[C@@H](CC[C@H]4C[C@@](O)(CF)CC[C@@H]43)[C@@H]1CC[C@@H]2C(=O)Cn1ccnn1 [SD-1] | – | > 0.5 µM | –
6 | Cc1nnnn1CC(=O)[C@H]1CC[C@H]2[C@@H]3CC[C@H]4C[C@@](O)(CF)CC[C@@H]4[C@H]3CC[C@]12C [SD-2] | 100 to 500% | – | –
7 | Cc1nnn(CC(=O)[C@H]2CC[C@H]3[C@@H]4CC[C@H]5C[C@@](O)(CF)CC[C@@H]5[C@H]4CC[C@]23C)n1 [SD-3] | 100 to 500% | – | –
8 | C[C@]12CC[C@H]3[C@@H](CC[C@H]4C[C@@](O)(CF)CC[C@@H]43)[C@@H]1CC[C@@H]2C(=O)Cn1cnnn1 [SD-4] | 100 to 500% | > 0.5 µM | –
9 | CC[C@@]1(O)CC[C@H]2[C@H](CC[C@@H]3[C@@H]2CC[C@]2(C)[C@@H](C(=O)Cn4cnnn4)CC[C@@H]32)C1 [SE-1] | 100 to 500% | – | –
10 | CC[C@@]1(O)CC[C@H]2[C@H](CC[C@@H]3[C@@H]2CC[C@]2(C)[C@@H](C(=O)Cn4ncnn4)CC[C@@H]32)C1 [SE-2] | > 500% | – | –
11 | CC[C@@]1(O)CC[C@H]2[C@H](CC[C@@H]3[C@@H]2CC[C@]2(C)[C@@H](C(=O)Cn4ccnn4)CC[C@@H]32)C1 [SE-3] | 100 to 500% | 0.1 to 0.5 µM | –
12 | CC[C@@]1(O)CC[C@H]2[C@H](CC[C@@H]3[C@@H]2CC[C@]2(C)[C@@H](C(=O)Cn4nnnc4C)CC[C@@H]32)C1 [SE-5] | – | > 0.5 µM | –
13 | CC[C@@]1(O)CC[C@H]2[C@H](CC[C@@H]3[C@@H]2CC[C@]2(C)[C@@H](C(=O)Cn4nnc(C)n4)CC[C@@H]32)C1 [SE-6] | 10 to 100% | > 0.5 µM | –
14 | C[C@]12CC[C@H]3[C@@H](CC[C@@H]4C[C@@](O)(CF)CC[C@@H]43)[C@@H]1CC[C@@H]2C(=O)Cn1cnnn1 [SF-1] | 100 to 500% | 0.1 to 0.5 µM | –
15 | C[C@]12CC[C@H]3[C@@H](CC[C@@H]4C[C@@](O)(CF)CC[C@@H]43)[C@@H]1CC[C@@H]2C(=O)Cn1ccnn1 [SF-4] | 100 to 500% | 0.1 to 0.5 µM | –
16 | Cc1nnnn1CC(=O)[C@H]1CC[C@H]2[C@@H]3CC[C@@H]4C[C@@](O)(C(F)F)CC[C@@H]4[C@H]3CC[C@]12C [SG-3] | 100 to 500% | – | –
17 | Cc1nnn(CC(=O)[C@H]2CC[C@H]3[C@@H]4CC[C@@H]5C[C@@](O)(C(F)F)CC[C@@H]5[C@H]4CC[C@]23C)n1 [SG-4] | 100 to 500% | – | –
18 | C[C@@]1(O)CC[C@@H]2[C@H]3CC[C@]4(C)[C@@H](C(=O)Cn5ccnn5)CC[C@H]4[C@@H]3C[C@@H](F)[C@@H]2C1 [SH-1] | – | > 0.5 µM | –
19 | C[C@@]1(O)CC[C@@H]2[C@H]3CC[C@]4(C)[C@@H](C(=O)Cn5nccn5)CC[C@H]4[C@@H]3C[C@@H](F)[C@@H]2C1 [SH-2] | 100 to 500% | > 0.5 µM | –
20 | CO[C@@H]1C[C@@H]2[C@H](CC[C@]3(C)[C@@H](C(=O)Cn4ccnn4)CC[C@@H]23)[C@H]2CC[C@@](C)(O)C[C@H]21 [SL-1] | 10 to 100% | > 0.5 µM | –
21 | CO[C@@H]1C[C@@H]2[C@H](CC[C@]3(C)[C@@H](C(=O)Cn4nccn4)CC[C@@H]23)[C@H]2CC[C@@](C)(O)C[C@H]21 [SL-2] | 10 to 100% | > 0.5 µM | –
22 | COC[C@@]1(O)CC[C@H]2[C@H](CC[C@@H]3[C@@H]2CC[C@]2(C)[C@@H](C(=O)Cn4cnnn4)CC[C@@H]32)C1 [SM-1] | 100 to 500% | 0.1 to 0.5 µM | –

Row | Compound | Emax at 10 µM [1] | IC50 [2] | Emax at 10 µM ([1]; in cremophor)
23 | COC[C@@]1(O)CC[C@H]2[C@H](CC[C@@H]3[C@@H]2CC[C@]2(C)[C@@H](C(=O)Cn4nnnc4C)CC[C@@H]32)C1 [SM-3] | > 500% | – | –
24 | COC[C@@]1(O)CC[C@H]2[C@H](CC[C@@H]3[C@@H]2CC[C@]2(C)[C@@H](C(=O)Cn4nnc(C)n4)CC[C@@H]32)C1 [SM-4] | > 500% | – | –
25 | COC[C@@]1(O)CC[C@H]2[C@H](CC[C@@H]3[C@@H]2CC[C@]2(C)[C@@H](C(=O)Cn4ccnn4)CC[C@@H]32)C1 [SM-5] | > 500% | 0.1 to 0.5 µM | –
26 | C[C@@H]1C[C@H]2[C@@H](CC[C@@H]3[C@@H]2CC[C@]2(C)[C@@H](C(=O)Cn4ccnn4)CC[C@@H]32)C[C@]1(C)O [SN-1] | 100 to 500% | 0.05 to 0.1 µM | –
27 | CCOC[C@@]1(O)CC[C@H]2[C@H](CC[C@@H]3[C@@H]2CC[C@]2(C)[C@@H](C(=O)Cn4nnnc4C)CC[C@@H]32)C1 [SO-1] | 100 to 500% | – | –
28 | CCOC[C@@]1(O)CC[C@H]2[C@H](CC[C@@H]3[C@@H]2CC[C@]2(C)[C@@H](C(=O)Cn4nnc(C)n4)CC[C@@H]32)C1 [SO-2] | – | > 0.5 µM | –
29 | CC[C@@]1(O)CC[C@H]2[C@@H](CC[C@@H]3[C@@H]2CC[C@]2(C)[C@@H](C(=O)Cn4ccnn4)CC[C@@H]32)C1 [SP-1] | – | > 0.5 µM | –
30 | CC[C@@]1(O)CC[C@H]2[C@@H](CC[C@@H]3[C@@H]2CC[C@]2(C)[C@@H](C(=O)Cn4nccn4)CC[C@@H]32)C1 [SP-2] | 100 to 500% | 0.1 to 0.5 µM | –
31 | CC[C@@]1(O)CC[C@H]2[C@@H](CC[C@@H]3[C@@H]2CC[C@]2(C)[C@@H](C(=O)Cn4ncnn4)CC[C@@H]32)C1 [SP-3] | 100 to 500% | – | –
32 | CC[C@@]1(O)CC[C@H]2[C@@H](CC[C@@H]3[C@@H]2CC[C@]2(C)[C@@H](C(=O)Cn4nnc(C)n4)CC[C@@H]32)C1 [SP-5] | 100 to 500% | – | –
33 | CCOC[C@@]1(O)CC[C@H]2[C@@H](CC[C@@H]3[C@@H]2CC[C@]2(C)[C@@H](C(=O)Cn4ccnn4)CC[C@@H]32)C1 [SQ-1] | – | > 0.5 µM | –
34 | CCOC[C@@]1(O)CC[C@H]2[C@@H](CC[C@@H]3[C@@H]2CC[C@]2(C)[C@@H](C(=O)Cn4nccn4)CC[C@@H]32)C1 [SQ-2] | 100 to 500% | – | –
35 | CCOC[C@@]1(O)CC[C@H]2[C@@H](CC[C@@H]3[C@@H]2CC[C@]2(C)[C@@H](C(=O)Cn4ncnn4)CC[C@@H]32)C1 [SQ-3] | > 500% | – | –
36 | CCOC[C@@]1(O)CC[C@H]2[C@@H](CC[C@@H]3[C@@H]2CC[C@]2(C)[C@@H](C(=O)Cn4cnnn4)CC[C@@H]32)C1 [SQ-4] | 100 to 500% | – | –
37 | CCOC[C@@]1(O)CC[C@H]2[C@@H](CC[C@@H]3[C@@H]2CC[C@]2(C)[C@@H](C(=O)Cn4nnnc4C)CC[C@@H]32)C1 [SQ-5] | – | > 0.5 µM | –
38 | CCOC[C@@]1(O)CC[C@H]2[C@@H](CC[C@@H]3[C@@H]2CC[C@]2(C)[C@@H](C(=O)Cn4nnc(C)n4)CC[C@@H]32)C1 [SQ-6] | 100 to 500% | – | –
39 | C[C@]12CC[C@H]3[C@@H](CC[C@H]4C[C@@](O)(C(F)F)CC[C@@H]43)[C@@H]1CC[C@@H]2C(=O)Cn1ccnn1 [SS-1] | – | 0.1 to 0.5 µM | –
40 | Cc1cnn(CC(=O)[C@H]2CC[C@H]3[C@@H]4C[C@@H](F)[C@H]5C[C@](C)(O)CC[C@@H]5[C@H]4CC[C@]23C)n1 [SV-7] | 100 to 500% | – | –
41 | Cc1cn(CC(=O)[C@H]2CC[C@H]3[C@@H]4C[C@@H](F)[C@H]5C[C@](C)(O)CC[C@@H]5[C@H]4CC[C@]23C)nn1 [SV-8] | > 500% | – | –
42 | Cc1cnnn1CC(=O)[C@H]1CC[C@H]2[C@@H]3C[C@@H](F)[C@H]4C[C@](C)(O)CC[C@@H]4[C@H]3CC[C@]12C [SV-9] | 100 to 500% | – | –
43 | CO[C@@H]1C[C@@H]2[C@H](CC[C@]3(C)[C@@H](C(=O)Cn4nccn4)CC[C@@H]23)[C@H]2CC[C@@](C)(O)C[C@@H]21 [SW-2] | – | > 0.5 µM | –

From US20200165291A1, “NEUROACTIVE STEROIDS, COMPOSITIONS, AND USES THEREOF” (Sage Therapeutics, Inc., priority 2014, published 2020)
